{"source": "paper PMC2807730", "about": "(Bioorganic & medicinal chemistry letters, 2009)", "key": {"Clk4 [1]": {"biological_target": "T1, Clk4 (Homo sapiens, UniProt Q9HAZ1)", "T1 sequence (Q9HAZ1 whole entry)": "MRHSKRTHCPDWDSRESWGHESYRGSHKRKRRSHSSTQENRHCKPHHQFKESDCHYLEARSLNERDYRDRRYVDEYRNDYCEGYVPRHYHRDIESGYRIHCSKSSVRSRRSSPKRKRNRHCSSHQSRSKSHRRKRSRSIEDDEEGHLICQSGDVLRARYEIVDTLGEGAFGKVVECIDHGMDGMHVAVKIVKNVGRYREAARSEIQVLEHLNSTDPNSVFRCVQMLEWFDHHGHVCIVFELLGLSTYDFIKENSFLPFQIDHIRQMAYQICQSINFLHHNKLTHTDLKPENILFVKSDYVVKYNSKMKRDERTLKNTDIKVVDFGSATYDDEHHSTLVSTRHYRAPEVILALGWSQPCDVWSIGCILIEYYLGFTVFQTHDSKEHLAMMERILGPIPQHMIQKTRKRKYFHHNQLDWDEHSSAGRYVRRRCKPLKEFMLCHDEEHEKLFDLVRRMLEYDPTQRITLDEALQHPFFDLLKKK", "conditions": "cited from earlier work"}, "Clk1": {"biological_target": "Clk1 (Homo sapiens, UniProt P49759)", "sequence (P49759 whole entry)": "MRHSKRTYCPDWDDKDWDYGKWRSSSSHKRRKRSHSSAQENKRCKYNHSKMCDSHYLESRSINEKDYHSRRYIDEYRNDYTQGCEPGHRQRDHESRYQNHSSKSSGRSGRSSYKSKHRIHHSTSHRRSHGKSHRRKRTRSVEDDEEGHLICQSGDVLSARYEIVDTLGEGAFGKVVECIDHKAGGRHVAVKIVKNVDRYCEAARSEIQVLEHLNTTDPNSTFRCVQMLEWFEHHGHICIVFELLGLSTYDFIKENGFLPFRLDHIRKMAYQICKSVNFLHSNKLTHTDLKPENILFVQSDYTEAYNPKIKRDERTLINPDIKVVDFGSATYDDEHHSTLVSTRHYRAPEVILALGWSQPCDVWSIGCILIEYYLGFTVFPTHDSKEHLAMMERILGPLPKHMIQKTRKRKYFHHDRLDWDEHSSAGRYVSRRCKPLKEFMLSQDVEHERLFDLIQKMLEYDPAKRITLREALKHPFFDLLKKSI", "conditions": "cited from earlier work"}, "Dyrk1A": {"biological_target": "Dyrk1A (Homo sapiens, UniProt Q13627)", "assay": "Dyrk1A inhibition", "assay_type": "biochemical", "conditions": "data not shown"}, "Clk4 [2]": {"biological_target": "T1, Clk4", "assay": "bioluminescent, luciferase-based Clk4 assay"}}, "data": [{"smiles": "CCN1/C(=C/C(C)=O)Sc2ccc(OC)cc21", "note": "[compound 1]", "values": [{"measurement": "IC50 values versus Clk4", "setting": "Clk4 [1]", "value": "low-nanomolar"}, {"measurement": "IC50 values versus Clk1", "setting": "Clk1", "value": "low-nanomolar"}]}, {"smiles": "c1csc(CNc2ncnc3ccc(-c4ccc5c(c4)OCO5)cc23)c1", "note": "[compound 4]", "values": [{"measurement": "activity versus numerous EGFR mutants", "setting": "EGFR mutants", "value": "> 250", "unit": "nM"}, {"measurement": "inhibition of Dyrk1A", "setting": "Dyrk1A", "value": "potent inhibitors"}, {"measurement": "enzyme inhibition in ATP dose response", "setting": "Clk4 [2]; compound constant at 70 nM, high ATP concentrations (>200 μM), data not shown", "value": "sharp decline in enzyme inhibition"}, {"measurement": "potency in peptide dose response", "setting": "Clk4 [2]; compound constant at 70 nM, increasing dose of peptide, data not shown", "value": "did not effect the potency"}, {"measurement": "change of potency with ATP concentration", "setting": "Clk4 [2]; dose response at 1, 50, 100 μM ATP (Figure 4A)", "value": "loss in potency when ATP levels rise"}, {"measurement": "change of potency with peptide substrate concentration", "setting": "Clk4 [2]; dose response at 50, 100, 200 μM peptide (Figure 4B)", "value": "no affect on the compound potency"}]}]}
